From patent US7084158B2, “Substituted propargylamines” (Bayer Cropscience S.A., priority 2001, dated 2006)

Experiments:
Assay type in all cases: in vivo
Set-up in all cases: key: compounds were considered to be active when, at a concentration of 500 ppm or less, they had an activity on the harmful organisms of 50% or more
Plutella maculipennis = experiment: Example K: sprayed white cabbage leaf, diamondback moth larvae mortality; conditions: 500 ppm or less, after 3 days
Description: A white cabbage leaf was sprayed with an aqueous solution of the formulated compound to be examined. After the spray coating had dried, the treated leaf was populated with larvae of the diamondback moth (Plutella maculipennis). After 3 days of storage at about 23° C., the effect of the compound on the larvae was determined (mortality). The compounds of the following examples were active: 60, 70, 1002, 1004, 1005, 1036, 197.

Spodoptera littoralis = experiment: Example G: treated L2 larvae and insect diet, Egyptian cotton leafworm mortality; conditions: 500 ppm or less, after 6 days
[1] = tested on: Leptinotarsa decemlineata; experiment: Example L: potato leaves and larvae sprayed, Colorado beetle mortality; conditions: 500 ppm or less, after 4 days
Description: Potato leaves were populated with larvae of the Colorado beetle (Leptinotarsa decemlineata). Leaves and larvae were then sprayed with an aqueous solution of the formulated compound to be examined. After 4 days of storage at about 25° C., the effect of the compound on the larvae was determined (mortality). The compounds of the following examples were active: 60, 70, 1002, 1004, 1005, 1036, 1047, 197.

Spodoptera exigua [2] = experiment: Example X: dipped freeze-dried diet cube, sugar beet armyworm L2 larvae mortality; conditions: 500 ppm or less, after 4 days
Description: Insect diet (as freeze-dried cube) was dipped into an aqueous solution of the formulated compound to be examined and then placed into a Petri dish. 10 L2 larvae of the sugar beet armyworm (Spodoptera exigua) were then added. The Petri dish was then closed with a lid. After 4 days of storage at about 23° C., the mortality among the larvae was determined. The following examples were active: 1036, 60.

Spodoptera exigua [3] = experiment: Example Y: cotton plants sprayed, cut leaves, sugar beet armyworm mortality; conditions: 500 ppm or less, leaves cut after drying, L2 larvae, after 4 days
Description: Cotton plants were sprayed with an aqueous solution of the formulated compound to be examined. After drying, leaves were cut off, placed into a Petri dish and populated with 5 L2 larvae of the sugar beet armyworm (Spodoptera exigua). After 4 days of storage at about 23° C., the mortality among the larvae was determined. The following examples were active: 1036, 70, 60, 1047, 197.

Heliothis virescens = experiment: Example B: tobacco budworm eggs on filter paper/insect diet, mortality; conditions: 500 ppm or less; 24-hour-old eggs dipped, diet treated; after 6 days

CC1CCN(CC#Cc2cc(C(F)(F)F)cc(C(F)(F)F)n2)CC1 [Example 60]
active: effect on the larvae (mortality) (Plutella maculipennis) | effect on the larvae (mortality) (Spodoptera littoralis) | effect on the larvae (mortality) [1] | mortality among the larvae (Spodoptera exigua [2]) | mortality among the larvae (Spodoptera exigua [3]) | effect on the eggs and hatched larvae (mortality) (Heliothis virescens)
